Test system: 9L cells
Test: Transwell migration (matrigel invasion) assay
Type: cell-based, rat
Settings: 4 μg/ml free chlorotoxin, 24 hrs
Experimental: Transwell migration assay. The assay was performed by a method reported previously to assess the bioactivity of chlorotoxin. See Deshane et al., J. Biol. Chem. 2003, 278:4135-4144, expressly incorporated herein in its entirety. Prior to the experiment, matrigel invasion chamber inserts (BD Biosciences, Bedford, Mass.) of 8 μm pore size were rehydrated. The lower surfaces of the chamber inserts were immersed in 5 μg/ml solution of vitronectin for 8 hours. 9L cells were then plated at a density of 2.5×10^5 cells per chamber. Cells were treated with solutions of 4 μg/ml of chlorotoxin, and 10 μg Fe/ml of NPCs, respectively. The chambers were then incubated in a 37° C. humidified incubator maintained at 5% CO2 for 24 hrs. The cells on the upper inserts were scrubbed off, and the invaded cells were fixed and stained with Diff-Quik stain kit (IMEB INC., Chicago, Ill.). The filters were then detached from the inserts and mounted on glass slides using immersion oil and imaged on a Nikon E800 upright microscope. Relative inhibition of cell invasion was determined through reduction of migrating cells in presence of chlorotoxin and NPCs. Triplicates of each sample were prepared and cell counts were obtained from five random spots on each filter. The data was then averaged and presented as a relative number of invasive cells per treatment.

With chlorotoxin the “inhibition of cell invasion” value was “approximately 88%”.
